Source: patent publication US5242684A, “Antimicrobial, low toxicity, non-irritating composition comprising a blend of bis-quaternary ammonium compounds coprecipitated with a copolymer of vinylpyrrolidone and an acrylamido or vinyl quaternary ammonium monomer” (ISP Investments Inc., priority 1991, dated 1993)

Tests used:
LD50 toxicity (on rats) = settings: rat, in vivo
E.Coli = experiment: Minimum Inhibitory Concentration (MIC) against E.Coli; format: cell-based; settings: Gram negative, coprecipitates at 50:50 wt. ratio with GAFQUAT HS-100, unit assumed
From the text: The antimicrobial activity of the products herein are represented by their Minimum Inhibitory Concentration (MIC) against E.Coli, a Gram negative microorganism. Their effect on skin is indicated by an Irritation Index. These properties are presented in the Table below for the individual compounds in blend D and the invention composition of several D, H and L blend compositions coprecipitated in a 50:50 wt. ratio with GAFQUAT® HS-100.

| Structure (SMILES) | LD50 (LD50 toxicity (on rats)) [mg/kg] | MIC (E.Coli) [µg/mL] |
| --- | --- | --- |
| CCCCCCCCCCCCCC[N+](C)(C)CCOCCOCC[N+](C)(C)CCCCCCCCCCCCCC [C compound in D blend] | 950 | 125 |
| CCCCCCCCCCCC[N+](C)(C)CCOCCOCC[N+](C)(C)CCCCCCCCCCCC [A compound in D blend] | 300 | 100 |
| CCCCCCCCCCCCCC[N+](C)(C)CCOCCOCC[N+](C)(C)CCCCCCCCCCCC [B compound in D blend] | 700 | 50 |
